{
  "source": "patent US20180105548A1",
  "about": "“A novel compound (KS-513) isolated from Pseudolysimachion rotundum var. subintegrum, the composition comprising the same preventing or treating allergic disease, inflammatory disease, asthma or chronic obstructive pulmonary disease and the use thereof” (priority 2015, published 2018)",
  "assay_type_in_all_cases": "cell-based, mouse",
  "key": {"iNOS": {"tested_on": "iNOS", "test": "iNOS protein expression in RAW264.7 cell induced by LPS (Western blot)", "details": "2.5, 5, 10 and 20 μM, LPS 1 μg/mL, 12 hours, FIG. 3A", "procedure": "The expressed level of iNOS in RAW264.7 cell induced by LPS (1 μg/ml) was determined by using Western blot analysis. RAW264.7 cell was inoculated into […] in the concentration of 1×10^6 cell/well to incubate for 12 hours. Various concentration of KS-513 compound (2.5, 5, 10 and 20 μM) was pre-treated therewith and 1 μg/mL of LPS (L6529, Sigma) was added thereto to incubate for 12 hours.\nTo extract protein, after washing the cell with ice-cold PBS three times, lysis buffer (50 mM Tris HCl (pH 8.0), 5 mM EDTA, 150 mM NaCl, 1% NP-40, 0.1% SDS, 1 mM PMSF, and protease inhibitor cocktail tablet (Roche, Germany, 11697498001) was added to the cell, reacted at 4° C. for 30 mins and centrifuged for 10 mins at the speed of 12,000 rpm to collect the supernatant.\nThe equivalent amount of the protein was isolated by SDS-PAGE and the protein was transferred to nitrocellulose membrane (BR162-0145, Bio-Rad). […] The product was reacted with ECL system and the amount of protein was determined by imaging analysis apparatus (LAS-4000, Fujifilm).\nThe quantitative determination of protein was performed by determining the absorbance using assay kit (Bradford protein assay kit, Thermo) at 595 nm and the result was shown in FIG. 3A."}, "PGE2": {"tested_on": "PGE2", "test": "PGE2 production in LPS-treated RAW264.7 cell (EIA)", "details": "for PGE2 production (relative % comparing with LPS treatment group) / PGE2 production, Inhibitory ratio (%): LPS 1 μg/mL, 24 hours", "procedure": "In order to determine the inhibitory effect on the COX-2 protein expression and the reproduced level of PGE2, following test was performed by the method disclosed in the literature (Chen, C, et al., 1999, Involvement of p 38 mitogen-activated protein kinase in lipopolysaccharide-induced iNOS and COX-2 expression in J774 macrophage, Immunology, 97, pp 124-129)\nRAW264.7 cell was inoculated into 96 well plates in the concentration of 1×10^5 cell/well to incubate for 18 hours. Various concentration of KS-513 compound (2.5, 5, 10 and 20 μM) was pre-treated therewith and 1 μg/mL of LPS (L6529, Sigma) was added thereto to incubate for 24 hours. The PGE2 level in the cell was determined by Enzyme immunoassay (EIA; Amersham Pharmacia) system and the result was shown in FIG. 4A, 4B and Table 6."}, "IL-6": {"tested_on": "IL-6", "test": "mRNA expression of IL-6 in RAW264.7 cell line induced by LPS (real-time PCR)", "details": "for IL-6 mRNA expression, Fold (value compared with a negative group) / IL-6 mRNA expression, Inhibition ratio (IR) compared with LPS treatment group: LPS 1 μg/ml, 12 hours", "procedure": "(§1) In order to determine the inhibitory effect on the mRNA expression of pro-inflammatory medicated enzyme such as iNOS or COX-2, and pro-inflammatory medicated cytokines such as IL-1beta, IL-6, TNF-alpha in RAW264.7 cell line induced by LPS, following test using by real-time PCR (real-time polymerase chain reaction, quantitative real time polymerase chain reaction, qPCR) was performed according to the method disclosed in the literature (Livak, K. J., Schimittgen T. D., 2001, Analysis of relative gene expression data using real-time quantitiative PCR and the 2 (-Delta Delta C(T) method, Methods 25, p 402-408):\n(§2) RAW264.7 cell was inoculated into 6-well-plates in the concentration of 1×10^6 cell/well to incubate for 12 hours. Various concentration of KS-513 compound (2.5, 5, 10 and 20 μM) was pre-treated therewith and 1 μg/mL of LPS (L6529, Sigma) was added thereto to incubate for 12 hours.\n(§3) To extract total RNA, RNA was extracted using by Triazol B (invitrogen) and cDNA was synthesized using by Omniscript RT kit (205113, Qiagen, Gmbh, Hilden, Germany) after the quantification. The synthesized cDNA was mixed with its template and the primers shown in Table 3 (SEQ.I.D. 1-14), performed to denaturation at 94° C. for 5 mins using by PCR mix (PCR master Mix, Bioneer, Korea), and reacted as follows: 1 cycle for pre-denaturation; at 95° C. for 30 sec, 60° C. for 45 sec, 72° C. for 45 sec, 30 cycles for denaturation; 10 mins at 72° C., 1cycle for final extension. (FIG. 2)"}, "IL-1beta": {"tested_on": "IL-1beta", "test": "mRNA expression of IL-1beta in RAW264.7 cell line induced by LPS (real-time PCR)", "details": "for IL-1beta mRNA expression, Fold (value compared with a negative group) / IL-1beta mRNA expression, Inhibition ratio (IR) compared with LPS treatment group: LPS 1 μg/ml, 12 hours", "procedure": "as §1, §2, §3"}, "RAW264.7 cell": {"tested_on": "RAW264.7 cell", "test": "Cytotoxicity test (CCK-8) in RAW264.7 cell", "details": "up to 80 μM", "procedure": "(§4) RAW264.7 cell (TIB-71, ATCC), a mouse macrophage cell, was suspended in 5% FBS (Fetal Bovine Serum)-supplemented DMEM (Dulbecco's Modified Eagle Medium, Gibco) medium in a concentration of 1×10^5 cells/ml, and 100 μL of the suspension was inoculated into 96 well plates to adhere cell to the plate for 4 hours. Various concentrations of test sample (KS 513 compound) were treated therewith and cultured for 24 hours. 10 μL of CCK-8 solution was mixed therewith according to the manufacture's manual kit (Dojindo Co. Ltd), reacted from 30 mins to 4 hours, and the absorbance of the solution was determined at […]. The cell viability was calculated according to following Math formulae 1 based on negative control group treated with 0.2% DMSO and the result was shown in Table 2.\n(§5) Cell viability (%)=OD 570 nm (test group)/OD 570 nm (negative control group)×100 Math formulae 1"}, "[1]": {"test": "Cytotoxicity test (CCK-8) in RAW264.7 cell", "details": "mouse, RAW264.7 macrophage cells", "procedure": "as §4, §5"}, "[2]": {"details": "various concentration, compared with control group treated with LPS (100%)"}},
  "data": [
    {"molecule": "CO[C@@H]1C[C@H]2[C@H](OC(=O)c3ccc(O)cc3)[C@@H]3O[C@]3(CO)[C@H]2[C@H](O[C@@H]2O[C@H](CO)[C@@H](O)C(O)[C@H]2O)O1", "note": "(stereo partly drawn) [KS-513, (1aS, 1bS,2S,4S,5aR,6S,6aS)-1a-(hydroxymethyl)-4-methoxy-2-(((2S,3R,5S,6R)-3,4,5-trihydroxy-6-(hydroxymethyl)tetrahydro-2H-pyran-2-yl)oxy)octahydrooxireno[2′,3′:4,5]cyclopenta[1,2-c]pyran-6-yl 4-hydroxybenzoate]", "values": [
      {"measurement": "expressed level of iNOS protein", "setting": "iNOS", "value": "reduced in a dose dependent manner"},
      {"measurement": "PGE2 production (relative % comparing with LPS treatment group)", "setting": "PGE2; 2.5 μM", "value": "92.68 ± 7.29", "unit": "%"},
      {"measurement": "PGE2 production, Inhibitory ratio (%)", "setting": "PGE2; 2.5 μM", "value": 7.31, "unit": "%"},
      {"measurement": "PGE2 production (relative % comparing with LPS treatment group)", "setting": "PGE2; 5 μM", "value": "72.87 ± 8.78", "unit": "%"},
      {"measurement": "PGE2 production, Inhibitory ratio (%)", "setting": "PGE2; 5 μM", "value": 27.13, "unit": "%"},
      {"measurement": "PGE2 production (relative % comparing with LPS treatment group)", "setting": "PGE2; 10 μM", "value": "51.65 ± 8.44", "unit": "%"},
      {"measurement": "PGE2 production, Inhibitory ratio (%)", "setting": "PGE2; 10 μM", "value": 48.35, "unit": "%"},
      {"measurement": "PGE2 production (relative % comparing with LPS treatment group)", "setting": "PGE2; 20 μM", "value": "28.23 ± 4.72", "unit": "%"},
      {"measurement": "PGE2 production, Inhibitory ratio (%)", "setting": "PGE2; 20 μM", "value": 71.77, "unit": "%"},
      {"measurement": "reproduced ratio of PGE2", "setting": "PGE2; based on LPS treatment (100%)", "value": "reduced in a dose dependent manner"},
      {"measurement": "IL-6 mRNA expression, Fold (value compared with a negative group)", "setting": "IL-6; 2.5 μM", "value": "24.73 ± 2.26", "unit": "Fold"},
      {"measurement": "IL-6 mRNA expression, Inhibition ratio (IR) compared with LPS treatment group", "setting": "IL-6; 2.5 μM", "value": 20.62, "unit": "%"},
      {"measurement": "IL-6 mRNA expression, Fold (value compared with a negative group)", "setting": "IL-6; 5 μM", "value": "14.24 ± 1.44", "unit": "Fold"},
      {"measurement": "IL-6 mRNA expression, Inhibition ratio (IR) compared with LPS treatment group", "setting": "IL-6; 5 μM", "value": 54.30, "unit": "%"},
      {"measurement": "IL-6 mRNA expression, Fold (value compared with a negative group)", "setting": "IL-6; 10 μM", "value": "8.57 ± 1.23", "unit": "Fold"},
      {"measurement": "IL-6 mRNA expression, Inhibition ratio (IR) compared with LPS treatment group", "setting": "IL-6; 10 μM", "value": 72.50, "unit": "%"},
      {"measurement": "IL-6 mRNA expression, Fold (value compared with a negative group)", "setting": "IL-6; 20 μM", "value": "2.35 ± 0.81", "unit": "Fold"},
      {"measurement": "IL-6 mRNA expression, Inhibition ratio (IR) compared with LPS treatment group", "setting": "IL-6; 20 μM", "value": 92.46, "unit": "%"},
      {"measurement": "expressed level of mRNA of IL-6", "setting": "IL-6; [2]", "value": "significantly decreased in a dose dependent manner"},
      {"measurement": "IL-1beta mRNA expression, Fold (value compared with a negative group)", "setting": "IL-1beta; 2.5 μM", "value": "10.41 ± 1.09", "unit": "Fold"},
      {"measurement": "IL-1beta mRNA expression, Inhibition ratio (IR) compared with LPS treatment group", "setting": "IL-1beta; 2.5 μM", "value": 37.69, "unit": "%"},
      {"measurement": "IL-1beta mRNA expression, Fold (value compared with a negative group)", "setting": "IL-1beta; 5 μM", "value": "5.72 ± 0.24", "unit": "Fold"},
      {"measurement": "IL-1beta mRNA expression, Inhibition ratio (IR) compared with LPS treatment group", "setting": "IL-1beta; 5 μM", "value": 65.75, "unit": "%"},
      {"measurement": "IL-1beta mRNA expression, Fold (value compared with a negative group)", "setting": "IL-1beta; 10 μM", "value": "2.56 ± 0.14", "unit": "Fold"},
      {"measurement": "IL-1beta mRNA expression, Inhibition ratio (IR) compared with LPS treatment group", "setting": "IL-1beta; 10 μM", "value": 84.68, "unit": "%"},
      {"measurement": "IL-1beta mRNA expression, Fold (value compared with a negative group)", "setting": "IL-1beta; 20 μM", "value": "1.70 ± 0.59", "unit": "Fold"},
      {"measurement": "IL-1beta mRNA expression, Inhibition ratio (IR) compared with LPS treatment group", "setting": "IL-1beta; 20 μM", "value": 89.85, "unit": "%"},
      {"measurement": "expressed level of mRNA of IL-1beta", "setting": "IL-1beta; [2]", "value": "significantly decreased in a dose dependent manner"},
      {"measurement": "cytotoxicity in RAW264.7 cell", "setting": "RAW264.7 cell", "value": "did not show cytotoxicity"},
      {"measurement": "viability at 24 h, 2.5 µM", "setting": "[1]; 2.5 μM, 24 hours, vs negative control 0.2% DMSO, read-out: RAW264.7 cell viability (%, mean ± variation)", "value": "99.6 ± 3.66", "unit": "%"},
      {"measurement": "viability at 24 h, 5 µM", "setting": "[1]; 5 μM, 24 hours, vs negative control 0.2% DMSO, read-out: RAW264.7 cell viability (%, mean ± variation)", "value": "99.3 ± 5.68", "unit": "%"},
      {"measurement": "viability at 24 h, 10 µM", "setting": "[1]; 10 μM, 24 hours, vs negative control 0.2% DMSO, read-out: RAW264.7 cell viability (%, mean ± variation)", "value": "98.2 ± 3.28", "unit": "%"},
      {"measurement": "viability at 24 h, 20 µM", "setting": "[1]; 20 μM, 24 hours, vs negative control 0.2% DMSO, read-out: RAW264.7 cell viability (%, mean ± variation)", "value": "94.7 ± 3.03", "unit": "%"},
      {"measurement": "viability at 24 h, 40 µM", "setting": "[1]; 40 μM, 24 hours, vs negative control 0.2% DMSO, read-out: RAW264.7 cell viability (%, mean ± variation)", "value": "97.2 ± 7", "unit": "%"},
      {"measurement": "viability at 24 h, 80 µM", "setting": "[1]; 80 μM, 24 hours, vs negative control 0.2% DMSO, read-out: RAW264.7 cell viability (%, mean ± variation)", "value": "95.1 ± 2.73", "unit": "%"},
      {"measurement": "viability at 24 h", "setting": "[1]; at less than 80 μM", "value": "> 95", "unit": "%"}
    ]}
  ]
}
